Measured values from PMC12525688, “Anti-Helicobacter pylori Activity and Gastroprotective Effects of Diacetylcurcumin and Four Metal Derivatives” (Molecules, 2025).
Like-named read-outs stand apart in the source and are kept apart here.

How the values were obtained:
[1] = molecular target: T1, Helicobacter pylori urease (Helicobacter pylori, UniProt P69996); test: Berthelot colorimetric urease activity assay with lysate supernatant (partially purified urease); format: biochemical
T1 construct: gene ureB; native urease from supernatant of sonicated H. pylori ATCC 43504; with urease subunit alpha (UreA)
T1 sequence (P14916 whole entry): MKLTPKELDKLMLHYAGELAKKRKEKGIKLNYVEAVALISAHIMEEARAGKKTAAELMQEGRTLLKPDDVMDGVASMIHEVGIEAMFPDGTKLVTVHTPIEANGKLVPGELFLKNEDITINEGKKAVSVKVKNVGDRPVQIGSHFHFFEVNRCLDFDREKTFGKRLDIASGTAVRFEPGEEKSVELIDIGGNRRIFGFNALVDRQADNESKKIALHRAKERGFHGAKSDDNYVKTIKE
T1 sequence (P69996 whole entry): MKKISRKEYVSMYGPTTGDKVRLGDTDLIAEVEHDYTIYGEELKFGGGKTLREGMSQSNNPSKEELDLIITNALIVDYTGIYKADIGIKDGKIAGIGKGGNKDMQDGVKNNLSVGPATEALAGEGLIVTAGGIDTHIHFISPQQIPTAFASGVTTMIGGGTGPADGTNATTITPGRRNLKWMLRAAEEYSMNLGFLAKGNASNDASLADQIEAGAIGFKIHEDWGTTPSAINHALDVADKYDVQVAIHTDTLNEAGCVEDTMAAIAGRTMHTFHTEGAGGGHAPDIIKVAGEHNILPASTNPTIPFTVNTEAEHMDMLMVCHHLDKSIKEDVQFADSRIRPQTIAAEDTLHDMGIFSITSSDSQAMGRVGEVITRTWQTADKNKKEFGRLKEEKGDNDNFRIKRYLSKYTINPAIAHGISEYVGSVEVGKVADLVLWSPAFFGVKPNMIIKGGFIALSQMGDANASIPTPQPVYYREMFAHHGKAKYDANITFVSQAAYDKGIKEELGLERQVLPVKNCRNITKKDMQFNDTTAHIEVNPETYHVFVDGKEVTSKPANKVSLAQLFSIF

[2] = molecular target: T2, E. coli DNA gyrase (Escherichia coli, UniProt P0AES4+P0AES6); test: DNA supercoiling assay (agarose gel), […] inhibition at […]; format: biochemical
T2 construct: gene gyrA; DNA gyrase of the TopoGEN E. coli DNA Gyrase Drug Screening kit; with DNA gyrase subunit B (GyrB)
T2 sequence (P0AES4 2-875, one chain of several): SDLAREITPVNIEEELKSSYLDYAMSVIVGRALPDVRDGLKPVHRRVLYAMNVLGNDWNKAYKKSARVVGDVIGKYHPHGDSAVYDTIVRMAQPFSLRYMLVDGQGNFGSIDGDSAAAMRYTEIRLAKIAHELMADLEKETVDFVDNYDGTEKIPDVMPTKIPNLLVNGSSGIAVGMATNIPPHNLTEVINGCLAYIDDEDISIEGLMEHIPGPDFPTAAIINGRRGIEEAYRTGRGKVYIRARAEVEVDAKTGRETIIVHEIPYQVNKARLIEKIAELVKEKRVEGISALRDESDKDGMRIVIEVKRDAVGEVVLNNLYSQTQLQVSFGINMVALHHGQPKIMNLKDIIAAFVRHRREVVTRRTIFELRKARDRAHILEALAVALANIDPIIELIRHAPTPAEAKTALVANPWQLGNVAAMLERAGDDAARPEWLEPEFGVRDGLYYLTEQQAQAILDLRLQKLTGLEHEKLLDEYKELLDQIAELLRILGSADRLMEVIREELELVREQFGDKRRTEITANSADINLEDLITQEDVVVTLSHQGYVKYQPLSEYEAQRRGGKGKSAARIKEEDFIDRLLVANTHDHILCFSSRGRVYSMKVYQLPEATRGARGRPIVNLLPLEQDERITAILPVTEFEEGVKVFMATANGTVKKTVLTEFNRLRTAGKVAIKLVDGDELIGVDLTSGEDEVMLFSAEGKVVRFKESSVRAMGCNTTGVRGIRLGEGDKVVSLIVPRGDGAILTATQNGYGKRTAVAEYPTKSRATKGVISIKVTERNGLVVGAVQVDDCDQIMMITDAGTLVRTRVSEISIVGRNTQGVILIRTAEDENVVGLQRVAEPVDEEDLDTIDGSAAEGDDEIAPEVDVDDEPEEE

Row | Structure (SMILES) | IC50 [1] [µM] | further results
1 | CC(=O)NO [AHA, acetohydroxamic acid] |  | IC50 ([1]; read-out: IC50): 488 µM
2 | COc1cc(/C=C/C(=O)C=C(/C=C/c2ccc(OC(C)=O)c(OC)c2)[O][Cu][O]C(=CC(=O)/C=C/c2ccc(OC(C)=O)c(OC)c2)/C=C/c2ccc(OC(C)=O)c(OC)c2)ccc1OC(C)=O [DAC2-Cu] | 20.4 | 
3 | COc1cc(/C=C/C(=O)C=C(/C=C/c2ccc(OC(C)=O)c(OC)c2)[O][Zn][O]C(=CC(=O)/C=C/c2ccc(OC(C)=O)c(OC)c2)/C=C/c2ccc(OC(C)=O)c(OC)c2)ccc1OC(C)=O [DAC2-Zn] | 12.4 | 
4 | O=C(O)c1cn(C2CC2)c2cc(N3CCNCC3)c(F)cc2c1=O [ciprofloxacin] |  | inhibition at 3 µM [2]: 100%
